Source: US11690860B2, “Treatment of HCV infected patients with cirrhosis” (Atea Pharmaceuticals, Inc., priority 2018, dated 2023)
Where “and” joins values, the source holds several entries; their conditions need not be identical. Equal entries are not always repeated. Entries after “also recorded” stand apart in the source; their conditions may differ. Structures can show the parent of a compound that is named as a salt.

Assays:
Format in all cases: in vivo, human
GT1b HCV [1] = assay: Part C: multiple ascending dose study, 7 days QD, HCV RNA change in non-cirrhotic GT1 HCV-infected patients; conditions: for Mean ± SD HCV RNA maximum change from baseline / Individual HCV RNA maximum change from baseline / Mean ± SD HCV RNA change from baseline to 24 h: NC GT1b; for Mean ± SD HCV RNA maximum change from baseline / Mean ± SD HCV RNA change from baseline to 24 h: N=6
Method: (§1) Doses were administered as the Compound 2 salt base. The free base Compound 1 equivalent is often given in parenthesis.
(§2) Part C was a randomized, double-blind, placebo-controlled MAD study divided into three cohorts. […] The dose escalation only proceeded following satisfactory review of the data.
(§3) HCV-infected patients were treatment-naïve with HCV RNA ≥5 log 10 IU/mL. HCV RNA was quantified using COBAS® AmpliPrep TaqMAN® v2.0 with LLQ of 15 IU/mL. Plasma drug levels were measured using LC-MS/MS. […] Cirrhosis was confirmed by prior liver biopsy or Fibroscan >12.5 kPa. […] Mean ages of enrolled subjects were 44, 39, and 56 years in the non-cirrhotic GT1b 600 mg dose cohort, non-cirrhotic GT3 cohort, and the cirrhotic cohort, respectively.

GT3 HCV = assay: Part D: 600 mg QD for 7 days, HCV RNA change in non-cirrhotic GT3 HCV-infected patients; conditions: for Individual HCV RNA maximum change from baseline / Mean ± SD HCV RNA maximum change from baseline / Mean ± SD HCV RNA change from baseline to 24 h: Part D; for Individual HCV RNA maximum change from baseline / Mean ± SD HCV RNA maximum change from baseline: NC GT3, 600 mg/day QD 7 days; for Mean ± SD HCV RNA maximum change from baseline / Mean ± SD HCV RNA change from baseline to 24 h: N=6; for Mean ± SD HCV RNA change from baseline to 24 h: NC GT3, 600 mg/day
Method: (§4) Doses were administered as the Compound 2 salt base. The free base Compound 1 equivalent is often given in parenthesis. […]
as §3

GT1b HCV [2] = assay: Part B: single ascending dose study, HCV RNA reduction in non-cirrhotic GT1b HCV-infected subjects
Method: as §3
Part A and Part B were previously conducted and described in WO 2018/144640. Part A and Part B were single ascending dose (SAD) studies.

[3] = Safety/tolerability in the study of Compound 2
Method: as §1, §2
However, this observation is consistent with previously published data showing rapid increase in lipids with HCV clearance upon initiation of DAA therapy in HCV-infected subjects.

HCV GT1, GT2, GT3 = assay: All 600 mg QD cohorts (Parts C/D/E) taken together, plasma HCV RNA
Method: as §1, §2, §3

[4] = Plasma pharmacokinetics of Compound 1 and metabolite 1-7 (LC-MS/MS) in Parts C, D and E; conditions: based on plasma exposures
Method: as §1, §2, §3
Plasma levels of metabolite 1-7 were measured using LC-MS/MS.

GT1, GT2, or GT3 HCV = assay: Part E: 600 mg QD for 7 days, HCV RNA change in Child-Pugh A cirrhotic patients; conditions: for Mean Reduction After 24 hours: 600 mg; for Mean ± SD HCV RNA maximum change from baseline / Mean ± SD HCV RNA change from baseline to 24 h / Individual HCV RNA maximum change from baseline: Part E; for Mean ± SD HCV RNA maximum change from baseline: Child-Pugh A cirrhotic GT1/GT2/GT3, 600 mg/day QD 7 days; for Mean ± SD HCV RNA maximum change from baseline / Mean ± SD HCV RNA change from baseline to 24 h: N=6; for Mean ± SD HCV RNA change from baseline to 24 h: Child-Pugh A cirrhotic GT1/GT2/GT3, 600 mg/day
Method: as §4, §3

[5] = Part C, 600 mg/day QD 7 days, listed as Compd 2
[6] = GT1, Child-Pugh A, 600 mg QD 7 days, n=3
[7] = GT3, Child-Pugh A, 600 mg QD 7 days, n=1

CNc1nc(N)nc2c1ncn2[C@@H]1O[C@H](CO[P@@](=O)(N[C@@H](C)C(=O)OC(C)C)Oc2ccccc2)[C@@H](O)[C@@]1(C)F [Compound 2, hemi-sulfate salt of isopropyl((S)-(((2R,3R,4R,5R)-5-(2-amino-6-(methylamino)-9H-purin-9-yl)-4-fluoro-3-hydroxy-4-methyltetrahydrofuran-2-yl)methoxy)(phenoxy)phosphoryl)-L-alaninate]
HCV RNA < LOQ (15 IU/mL), subjects (GT1b HCV [1]; GT1 non-cirrhotic, 600 mg QD 7 days, n=6): 3/6 | subjects achieving HCV RNA <LOQ (GT1b HCV [1]; Part C, 600 mg QD 7 days): 50% | Mean ± SD HCV RNA maximum change from baseline (GT1b HCV [1]; Part C, 150 mg/day QD 7 days): 2.6 ± 1.1 log10 IU/mL | Individual HCV RNA maximum change from baseline (GT1b HCV [1]; Part C, 150 mg/day QD 7 days, listed as Compd 2): 1.7 log10 IU/mL and 1.8 log10 IU/mL (2×) and 2.7 log10 IU/mL and 3.0 log10 IU/mL and 4.5 log10 IU/mL | Mean ± SD HCV RNA change from baseline to 24 h (GT1b HCV [1]; Part C, 150 mg/day): 1.2 ± 0.3 log10 IU/mL | Mean ± SD HCV RNA maximum change from baseline (GT1b HCV [1]; Part C, 300 mg/day QD 7 days): 4.0 ± 0.4 log10 IU/mL | Individual HCV RNA maximum change from baseline (GT1b HCV [1]; Part C, 300 mg/day QD 7 days, listed as Compd 2): 3.4 log10 IU/mL and 3.7 log10 IU/mL and 3.9 log10 IU/mL and 4.2 log10 IU/mL (2×) and 4.5 log10 IU/mL | Mean ± SD HCV RNA change from baseline to 24 h (GT1b HCV [1]; Part C, 300 mg/day): 1.9 ± 0.2 log10 IU/mL | Individual HCV RNA maximum change from baseline (GT1b HCV [1]; Part C, 600 mg/day QD 7 days): 4.3 log10 IU/mL and 5.2 log10 IU/mL and 5.3 log10 IU/mL and 3.5 log10 IU/mL and 4.0 log10 IU/mL and 4.1 log10 IU/mL | Mean ± SD HCV RNA maximum change from baseline (GT1b HCV [1]; [5]): 4.4 ± 0.7 log10 IU/mL | Individual HCV RNA maximum change from baseline (GT1b HCV [1]; [5]): 3.5 log10 IU/mL and 4.0 log10 IU/mL and 4.1 log10 IU/mL and 4.3 log10 IU/mL and 5.2 log10 IU/mL and 5.3 log10 IU/mL | Mean ± SD HCV RNA change from baseline to 24 h (GT1b HCV [1]; Part C, 600 mg/day): 2.1 log10 IU/mL | Mean ± SD HCV RNA change from baseline to 24 h (GT1b HCV [1]; Part C, 600 mg/day, listed as Compd 2): 2.1 ± 0.2 log10 IU/mL | HCV RNA < LOQ (15 IU/mL), subjects (GT3 HCV; GT3 non-cirrhotic, 600 mg QD 7 days, n=6): one subject achieved HCV RNA <LOQ within four days and 1/6 | Individual HCV RNA maximum change from baseline (GT3 HCV): 4.2 log10 IU/mL and 4.4 log10 IU/mL and 4.5 log10 IU/mL (2×) and 5.0 log10 IU/mL | Mean ± SD HCV RNA maximum change from baseline (GT3 HCV): 4.5 log10 IU/mL | Mean ± SD HCV RNA maximum change from baseline (GT3 HCV; listed as Compd 2): 4.5 ± 0.3 log10 IU/mL | Individual HCV RNA maximum change from baseline (GT3 HCV; listed as Compd 2): 4.2 log10 IU/mL and 4.4 log10 IU/mL (2×) and 4.5 log10 IU/mL (2×) and 5.0 log10 IU/mL | Mean ± SD HCV RNA change from baseline to 24 h (GT3 HCV): 2.4 log10 IU/mL | Mean ± SD HCV RNA change from baseline to 24 h (GT3 HCV; listed as Compd 2): 2.3 ± 0.3 log10 IU/mL | Individual Max Reduction of HCV RNA (GT1b HCV [2]; 600 mg Compound 2 (equivalent of 550 mg Compound 1)): 2.1 log10 IU/ml and 2.3 log10 IU/ml and 2.6 log10 IU/ml | Mean Max Reduction of HCV RNA (GT1b HCV [2]; 600 mg Compound 2 (equivalent of 550 mg Compound 1), n=3): 2.3 log10 IU/ml | Individual Max Reduction of HCV RNA (GT1b HCV [2]; Compound 2 equivalent of 92 mg Compound 1): 0.6 log10 IU/ml and 0.8 log10 IU/ml and 0.9 log10 IU/ml | Mean Max Reduction of HCV RNA (GT1b HCV [2]; Compound 2 equivalent of 92 mg Compound 1, n=3): 0.8 log10 IU/ml | Individual Max Reduction of HCV RNA (GT1b HCV [2]; Compound 2 equivalent of 275 mg Compound 1): 1.1 log10 IU/ml and 1.8 log10 IU/ml and 2.2 log10 IU/ml | Mean Max Reduction of HCV RNA (GT1b HCV [2]; Compound 2 equivalent of 275 mg Compound 1, n=3): 1.7 log10 IU/ml | Individual Max Reduction of HCV RNA (GT1b HCV [2]; Compound 2 equivalent of 368 mg Compound 1): 1.8 log10 IU/ml and 2.2 log10 IU/ml and 2.6 log10 IU/ml | Mean Max Reduction of HCV RNA (GT1b HCV [2]; Compound 2 equivalent of 368 mg Compound 1, n=3): 2.2 log10 IU/ml | serious adverse events, dose-limiting toxicities, premature discontinuations ([3]; cirrhotic and non-cirrhotic HCV-infected subjects, up to 600 mg): No serious adverse events (AEs), dose-limiting toxicities, or premature discontinuations were reported; also recorded: No serious adverse events, dose-limiting toxicities or premature discontinuations were observed | lipid abnormalities (cholesterol and triglyceride increase) ([3]; compared to placebo): higher incidence of mostly low-grade lipid abnormalities | ALT/AST values ([3]; during the treatment period): decreased over time | AEs, laboratory parameters, ECGs and vital signs ([3]; in vivo): no other clinically relevant, dose-related patterns | liver injury ([3]; in vivo): no findings suggestive of liver injury | tolerability ([3]; up to 600 mg (salt form) for seven days): well tolerated | reductions in plasma HCV RNA (HCV GT1, GT2, GT3; 600 mg QD, steady state, regardless of genotype or cirrhosis status): −4.5 log10 IU/mL | plasma HCV RNA decrease within the first 24 h of dosing (HCV GT1, GT2, GT3; after the first 600 mg dose): up to 2.4 log10 IU/mL | subjects achieving HCV RNA below the lower limit of quantitation (HCV GT1, GT2, GT3; cohorts receiving 600 mg QD, seven days of therapy): ~30% | impact of mild hepatic impairment on PK [4]: did not significantly impact | antiviral activity / HCV RNA change in cirrhotic compared with non-cirrhotic subjects (GT1, GT2, or GT3 HCV; 600 mg/day QD 7 days, Part E vs Parts C and D): similar | HCV RNA < LOQ (15 IU/mL), subjects (GT1, GT2, or GT3 HCV; [6]): 1/3 | Mean Max Reduction (GT1, GT2, or GT3 HCV; [6]): 4.2 log10 IU/mL | Mean Reduction After 24 hours (GT1, GT2, or GT3 HCV; GT1, Child-Pugh A, n=3): 2.4 log10 IU/mL | activity against HCV genotypes in cirrhotic patients (GT1, GT2, or GT3 HCV; GT1, GT2, and GT3): active | HCV RNA < LOQ (15 IU/mL), subjects (GT1, GT2, or GT3 HCV; [7]): 0/1 | Mean (Individual) Max Reduction (GT1, GT2, or GT3 HCV; [7]): 4.8 log10 IU/mL | Mean Reduction After 24 hours (GT1, GT2, or GT3 HCV; GT3, Child-Pugh A, n=1): 2.2 log10 IU/mL | Mean ± SD HCV RNA maximum change from baseline (GT1, GT2, or GT3 HCV): 4.6 log10 IU/mL and 4.5 log10 IU/mL | Mean ± SD HCV RNA maximum change from baseline (GT1, GT2, or GT3 HCV; listed as Compd 2): 4.6 ± 0.5 log10 IU/mL | Mean ± SD HCV RNA change from baseline to 24 h (GT1, GT2, or GT3 HCV): 2.4 log10 IU/mL | Mean ± SD HCV RNA change from baseline to 24 h (GT1, GT2, or GT3 HCV; listed as Compd 2): 2.4 ± 0.2 log10 IU/mL | Individual HCV RNA maximum change from baseline (GT1, GT2, or GT3 HCV; cirrhotic GT1b, 600 mg/day QD 7 days): 4.0 log10 IU/mL and 4.1 log10 IU/mL and 4.5 log10 IU/mL | Individual HCV RNA maximum change from baseline (GT1, GT2, or GT3 HCV; cirrhotic GT1b, 600 mg/day QD 7 days, listed as Compd 2): GT1b: 4.0, log10 IU/mL and 4.1 log10 IU/mL and 4.5 log10 IU/mL | Individual HCV RNA maximum change from baseline (GT1, GT2, or GT3 HCV; cirrhotic GT2, 600 mg/day QD 7 days): GT2: 4.8 log10 IU/mL | Individual HCV RNA maximum change from baseline (GT1, GT2, or GT3 HCV; cirrhotic GT3, 600 mg/day QD 7 days, listed as Compd 2): 5.1 log10 IU/mL and 5.2 log10 IU/mL
